Laboratory results published in US20100298377A1, “NOVEL SUBSTITUTED INDAZOLES, THE PREPARATION THEREOF AND USE OF SAME IN THERAPEUTICS” (SANOFI-AVENTIS, priority 2007, published 2010).
Counter-ions that a name gives are not always drawn.

Target: AKT1 (Homo sapiens, UniProt P31749, S473D)
Test: Determination of the IC50 for AKT1 (HTRF)
Assay type: biochemical
Settings: AKT1 without PH domain, activated by PDK1
Procedure: Determination of the IC50 for AKT1
The inhibitory potential of the compounds is evaluated by HTRF, a time-resolved fluorescence technique based on non-radiative energy transfer (FRET). […] This phosphorylation allows the kinase activity of AKT1 to be activated.
Starting with a 10 mM solution of inhibitors, 3 μl are taken and placed in a 96-well polypropylene plate containing 27 μl of 100% DMSO. The various test compounds are diluted in cascade by taking 15 μl of compound, to which are added 30 μl of 100% DMSO.
The various reaction components are added in the following manner:
Next, 10 μl of the inhibitor solution are added. Finally, the reaction is initiated by adding 10 μl of a solution containing both 100 μM of ATP and 10 μM of biotinylated peptide. The sequence of this peptide is as follows: biot-[…] (reference Neosystem SP000560). The plate is then covered with a plastic film, agitated and finally incubated at RT for 30 minutes. […] After incubation overnight at 4° C., the plate is read using an Ultra evolution spectrophotometer from Tecan. […] All the tests are performed in duplicate and the mean of the two tests is calculated.
For each point, a delta F is calculated in the following manner:
R(Ratio)=counts665 nm/counts620 nm
ΔF % is calculated by the Tecan Ultra Evolution machine.

AKT1, sequence (P31749 118-480 S473D limits assumed): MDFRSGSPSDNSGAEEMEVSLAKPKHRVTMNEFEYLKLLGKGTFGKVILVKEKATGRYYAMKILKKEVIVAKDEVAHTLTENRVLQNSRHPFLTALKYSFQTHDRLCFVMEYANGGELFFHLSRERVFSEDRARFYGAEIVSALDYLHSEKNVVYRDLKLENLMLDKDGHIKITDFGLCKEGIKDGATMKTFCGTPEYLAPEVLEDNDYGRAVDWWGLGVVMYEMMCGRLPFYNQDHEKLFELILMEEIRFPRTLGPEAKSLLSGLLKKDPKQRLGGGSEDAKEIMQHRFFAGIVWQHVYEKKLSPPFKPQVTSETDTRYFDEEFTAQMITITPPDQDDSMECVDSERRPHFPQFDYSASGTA

Compound | IC50 [nM]
CN1CCCCC1C(NC(=O)Nc1ccc2[nH]nc(-c3ccc(S(N)(=O)=O)cc3)c2c1)c1ccccc1 [Ex 12, 4-[5-({[(1-Methylpiperid-2-yl)(phenyl)methyl]carbamoyl}amino)-1H-indazol-3-yl]benzenesulfonamide((S,2S),(R,2R))] | < 100
CN1CCCCC1C(NC(=O)Nc1ccc2[nH]nc(-c3cccnc3)c2c1)c1ccccc1 [Ex 14, 1-[(1-Methylpiperid-2-yl)(phenyl)methyl]-3-(3-pyrid-3-yl-1H-indazol-5-yl)urea((S,2S),(R,2R))] | < 100
CN1CCCCC1C(NC(=O)Nc1cc(F)c2[nH]nc(NC(=O)c3ccccc3)c2c1)c1ccccc1 [Ex 19, N-[7-Fluoro-5-({[(1-methylpiperid-2-yl)(phenyl)methyl]carbamoyl}amino)-1H-indazol-3-yl]benzamide((S,2S),(R,2R))] | 500 to 2000
CN1CCCCC1C(NC(=O)Nc1ccc2[nH]nc(C#Cc3cccc(F)c3)c2c1)c1ccccc1 [Ex 22, 1-{3-[(3-Fluorophenyl)ethynyl]-1H-indazol-5-yl}-3-[(1-methylpiperid-2-yl)(phenyl)methyl]urea((S,2S),(R,2R))] | 100 to 500
O=C(Nc1ccc2[nH]nc(C#Cc3ccccc3)c2c1)N[C@@H](c1ccc(Cl)c(Cl)c1)[C@@H]1CCCCN1 [Ex 26, 1-{(S)-(3,4-Dichlorophenyl)[(2S)-piperid-2-yl]methyl}-3-[3-(phenylethynyl)-1H-indazol-5-yl]urea] | 100 to 500
CN1CCCCC1C(NC(=O)Nc1ccc2[nH]nc(NC(=O)c3ccccc3)c2c1)c1ccccc1 [Ex 28, N-[5-({[(1-Methylpiperid-2-yl)(phenyl)methyl]carbamoyl}amino)-1H-indazol-3-yl]benzamide((S,2S),(R,2R))] | 100 to 500
CN1CCCCC1C(c1ccccc1)n1ccn(-c2ccc3[nH]ncc3c2)c1=O [Ex 30, 1-(1H-Indazol-5-yl)-3-[(1-methylpiperid-2-yl)phenylmethyl]-1,3-dihydroimidazol-2-one((S,2S),(R,2R))] | 100 to 500
(7-Fluoro-1H-indazol-5-yl)-(S)-(3-chloro-5-fluorophenyl)-(S)-piperid-2-ylmethyl carbamate [Ex 49] | < 100

Results, then the compound that gave them:

IC50 [nM] | Compound
500 to 2000 | CN1CCCCC1C(c1ccccc1)N(C)C(=O)Nc1ccc2[nH]ncc2c1 [Ex 32, 3-(1H-Indazol-5-yl)-1-methyl-1-[(1-methylpiperid-2-yl)phenylmethyl]urea((S,2S),(R,2R))]
500 to 2000 | CN(C(=O)NC(c1ccccc1)C1CCCCN1C)c1ccc2[nH]ncc2c1 [Ex 33, 1-(1H-Indazol-5-yl)-1-methyl-3-[(1-methylpiperid-2-yl)(phenyl)methyl]urea((S,2S),(R,2R))]
100 to 500 | O=C(Nc1ccc2[nH]ncc2c1)O[C@@H](c1cc(F)cc(Cl)c1)[C@H]1CCCCN1 [Ex 39c, (S)-(3-Chloro-5-fluorophenyl)[(2R)-piperid-2-yl]methyl 1H-indazol-5-ylcarbamate]
< 100 | O=C(Nc1ccc2[nH]ncc2c1)O[C@H](c1cc(F)cc(Cl)c1)[C@H]1CCCCN1 [Ex 39d, (R)-(3-Chloro-5-fluorophenyl)[(2R)-piperid-2-yl]methyl 1H-indazol-5-ylcarbamate]
500 to 2000 | CCOC(=O)c1cccc(C(OC(=O)Nc2ccc3[nH]ncc3c2)[C@@H]2CCCCN2)c1 (stereo partly drawn) [Ex 41, Ethyl 3-{[(1H-Indazol-5-ylcarbamoyl)oxy][(2S)-piperid-2-yl]methyl}benzoate]
500 to 2000 | CC(C)(C)c1ccc(NC(=O)c2cccc(C(OC(=O)Nc3ccc4[nH]ncc4c3)[C@@H]3CCCCN3)c2)cc1 (stereo partly drawn) [Ex 42, {3-[(4-tert-Butylphenyl)carbamoyl]phenyl}[(2S)-piperid-2-yl]methyl 1H-Indazol-5-yl carbamate]
100 to 500 | O=C(Nc1ccc2[nH]ncc2c1)OC(c1cccc(C(=O)Nc2ccccc2)c1)[C@@H]1CCCCN1 (stereo partly drawn) [Ex 43, [3-(Anilinocarbonyl)phenyl][(2S)-piperid-2-yl]methyl 1H-Indazol-5-ylcarbamate]
< 100 | O=C(Nc1ccc2[nH]ncc2c1)O[C@@H](c1cccc(C(F)(F)F)c1)[C@@H]1CCCCN1 [Ex 44, (S)-(3-Trifluoromethylphenyl)[(2S)-piperid-2-yl]methyl 1H-indazol-5-ylcarbamate]
< 100 | O=C(Nc1ccc2[nH]ncc2c1)O[C@@H](c1cccc(I)c1)[C@@H]1CCCCN1 [Ex 45, (S)-(3-Iodophenyl)[(2S)-piperid-2-yl]methyl 1H-indazol-5-ylcarbamate]

System: not given
Test: not given
Settings: not given

Compound | melting point [°C]
CN1CCCCC1C(NC(=O)Nc1ccc2[nH]nc(NC(=O)c3ccccc3)c2c1)c1ccccc1 (as salt: fumarate) [Ex 28, N-[5-({[(1-Methylpiperid-2-yl)(phenyl)methyl]carbamoyl}amino)-1H-indazol-3-yl]benzamide((S,2S),(R,2R))] | 235
CN1CCCCC1C(NC(=O)Nc1ccc2[nH]nc(-c3ccc(S(N)(=O)=O)cc3)c2c1)c1ccccc1 (as salt: fumaric acid salt) [Ex 12, 4-[5-({[(1-Methylpiperid-2-yl)(phenyl)methyl]carbamoyl}amino)-1H-indazol-3-yl]benzenesulfonamide((S,2S),(R,2R))] | 220
CN1CCCCC1C(NC(=O)Nc1ccc2[nH]nc(-c3ccncc3)c2c1)c1ccccc1 (as salt: fumaric acid salt) [Ex 13, 1-[(1-Methylpiperid-2-yl)(phenyl)methyl]-3-(3-pyrid-4-yl-1H-indazol-5-yl)urea((S,2S),(R,2R))] | 205
CN1CCCCC1C(NC(=O)Nc1ccc2[nH]nc(-c3cccnc3)c2c1)c1ccccc1 (as salt: fumaric acid salt) [Ex 14, 1-[(1-Methylpiperid-2-yl)(phenyl)methyl]-3-(3-pyrid-3-yl-1H-indazol-5-yl)urea((S,2S),(R,2R))] | 210
CN1CCCCC1C(NC(=O)Nc1ccc2[nH]nc(-c3ccccn3)c2c1)c1ccccc1 (as salt: fumaric acid salt) [Ex 15, 1-[(1-Methylpiperid-2-yl)(phenyl)methyl]-3-(3-pyrid-2-yl-1H-indazol-5-yl)urea((S,2S),(R,2R))] | > 250
CN1CCCCC1C(NC(=O)Nc1ccc2[nH]nc(-c3nc4ccccc4[nH]3)c2c1)c1ccccc1 (as salt: fumaric acid salt) [Ex 17, 1-[3-(1H-Benzimidazol-2-yl)-1H-indazol-5-yl]-3-[(1-methylpiperid-2-yl)(phenyl)methyl]urea((S,2S),(R,2R))] | 250
Cc1n[nH]c2ccc(NC(=O)NC(c3ccccc3)C3CCCCN3C)cc12 (as salt: fumaric acid salt) [Ex 18, 3-Methyl-5-({[(1-methylpiperid-2-yl)(phenyl)methyl]carbamoyl}amino)-1H-indazole ((S,2S),(R,2R))] | 200 to 201
CN1CCCCC1C(NC(=O)Nc1cc(F)c2[nH]nc(NC(=O)c3ccccc3)c2c1)c1ccccc1 (as salt: fumaric acid salt) [Ex 19, N-[7-Fluoro-5-({[(1-methylpiperid-2-yl)(phenyl)methyl]carbamoyl}amino)-1H-indazol-3-yl]benzamide((S,2S),(R,2R))] | 164
CN1CCCCC1C(NC(=O)Nc1cc(F)c2[nH]nc(N)c2c1)c1ccccc1 (as salt: fumaric acid salt) [Ex 20, 1-(3-Amino-7-fluoro-1H-indazol-5-yl)-3-[(1-methylpiperid-2-yl)(phenyl)methyl]urea((S,2S),(R,2R))] | 221 to 222
CN1CCCCC1C(NC(=O)Nc1cc(F)c2[nH]ncc2c1)c1ccccc1 (as salt: fumaric acid salt) [Ex 21, 1-(7-Fluoro-1H-indazol-5-yl)-3-[(1-methylpiperid-2-yl)(phenyl)methyl]urea((S,2S),(R,2R))] | 224 to 227
CN1CCCCC1C(NC(=O)Nc1ccc2[nH]nc(C#Cc3ccccc3)c2c1)c1ccccc1 (as salt: fumaric acid salt) [Ex 23, 1-[(1-Methylpiperid-2-yl)(phenyl)methyl]-3-[3-(phenylethynyl)-1H-indazol-5-yl]urea((S,2S),(R,2R))] | 227
CN1CCCCC1C(NC(=O)Nc1ccc2[nH]nc(C#Cc3ccc(F)cc3)c2c1)c1ccccc1 (as salt: fumaric acid salt) [Ex 24, 1-{3-[(4-Fluorophenyl)ethynyl]-1H-indazol-5-yl}-3-[(1-methylpiperid-2-yl)(phenyl)methyl]urea((S,2S),(R,2R))] | 244
CN1CCCCC1C(NC(=O)Nc1ccc2[nH]nc(C#Cc3cccnc3)c2c1)c1ccccc1 (as salt: fumaric acid salt) [Ex 25, 1-[(1-Methylpiperid-2-yl)(phenyl)methyl]-3-[3-(pyrid-3-ylethynyl)-1H-indazol-5-yl]urea((S,2S),(R,2R))] | 230

More lines, now with the values ahead:

melting point [°C] | Compound
231 to 232 | CN1CCCCC1C(c1ccccc1)n1ccn(-c2ccc3[nH]ncc3c2)c1=O (as salt: fumarate) [Ex 30, 1-(1H-Indazol-5-yl)-3-[(1-methylpiperid-2-yl)phenylmethyl]-1,3-dihydroimidazol-2-one((S,2S),(R,2R))]
145 | S=C(Nc1ccc2[nH]ncc2c1)N[C@@H](c1ccc(Cl)c(Cl)c1)[C@@H]1CCCCN1 (as salt: fumarate) [Ex 31, 1-{(S)-(3,4-Dichlorophenyl)[(2S)-piperid-2-yl]methyl}-3-(1H-indazol-5-yl)thiourea]
